Reference: patent US20240174618A1, “SUBSTITUTED (2-HETEROARYLOXYPHENYL)SULFONATES, SALTS THEREOF AND THEIR USE AS HERBICIDAL AGENTS” (Bayer Aktiengesellschaft, priority 2021, published 2024)

What was measured:
Format in all cases: in vivo
Viola tricolor (VIOTR) [1] = assay: C. Herbicidal pre-emergence efficacy, VIOTR
Source text: (§1) Seeds of monocotyledonous and dicotyledonous weed plants and crop plants were placed in plastic or organic planting pots and covered with soil. The compounds of the invention, formulated in the form of wettable powders (WP) or as emulsion concentrates (EC), were then applied to the surface of the covering soil as aqueous suspension or emulsion with addition of 0.5% additive at a water application rate equivalent to 600 l/ha (converted). After the treatment, the pots were placed in a greenhouse and kept under good growth conditions for the test plants. After about 3 weeks, the efficacy of the preparations was scored visually in comparison with untreated controls as percentages. For example, • 100% efficacy=plants have died, • 0% efficacy=like untreated control plants.
(§2) Tables C1a to C14b below show the effects of selected compounds of the general formula (I) according to table 1 on various harmful plants at an application rate corresponding to 320 g/ha or less, which were obtained by the experimental procedure mentioned above.

[2] = test system: Amaranthus retroflexus (AMARE); assay: C. Herbicidal pre-emergence efficacy, AMARE; conditions: scored after about 3 weeks
Source text: as §1, §2

[3] = test system: Echinochloa crus-galli (ECHCG); assay: C. Herbicidal pre-emergence efficacy, ECHCG; conditions: 320 g/ha, scored after about 3 weeks
Source text: as §1, §2

Lolium rigidum (LOLRI) = assay: C. Herbicidal pre-emergence efficacy, LOLRI; conditions: 320 g/ha, scored after about 3 weeks
Source text: as §1, §2

[4] = test system: Polygonum convolvulus (POLCO); assay: E. Herbicidal post-emergence efficacy, POLCO; conditions: application rate 320 g/ha
Procedure: (§3) Seeds of monocotyledonous and dicotyledonous weeds and crop plants were placed in sandy loam in plastic or organic planting pots, covered with soil and cultivated in a greenhouse under controlled growth conditions. 2 to 3 weeks after sowing, the test plants were treated at the one-leaf stage. The compounds of the invention, formulated in the form of wettable powders (WP) or as emulsion concentrates (EC), were then sprayed onto the green parts of the plants as aqueous suspension or emulsion with addition of 0.5% additive at a water application rate of 600 l/ha (converted). After the test plants had been kept in the greenhouse under optimum growth conditions for about 3 weeks, the activity of the preparations was rated visually in comparison to untreated controls.
(§4) For example, • 100% efficacy=plants have died, • 0% action=like untreated control plants.
(§5) Tables E1a to E12b below show the effects of selected compounds of the general formula (I) according to table 1 on various harmful plants at an application rate corresponding to 320 g/ha or less, which were obtained by the experimental procedure mentioned above.

Viola tricolor (VIOTR) [5] = assay: E. Herbicidal post-emergence efficacy, VIOTR
Procedure: as §3, §4, §5

[6] = test system: Abutilon theophrasti (ABUTH); assay: E. Herbicidal post-emergence efficacy, ABUTH; conditions: application rate 320 g/ha
Procedure: as §3, §4, §5

Zea mays (ZEAMX) [7] = assay: D. Pre-emergence effect on useful plants, ZEAMX; conditions: useful plant, application rate 80 g/ha
Source text: as §1
(§6) Tables D1a to D5b below show the effects of selected compounds of the general formula (I) according to table 1 on various useful plants at an application rate corresponding to 320 g/ha or less, which were obtained by the experimental procedure mentioned above.

[8] = test system: Abutilon theophrasti (ABUTH); assay: C. Herbicidal pre-emergence efficacy, ABUTH; conditions: scored after about 3 weeks
Source text: as §1, §2

Setaria viridis (SETVI) [9] = assay: C. Herbicidal pre-emergence efficacy, SETVI; conditions: 320 g/ha, scored after about 3 weeks
Source text: as §1, §2

Setaria viridis (SETVI) [10] = assay: E. Herbicidal post-emergence efficacy, SETVI; conditions: application rate 320 g/ha
Procedure: as §3, §4, §5

[11] = test system: Alopecurus myosuroides (ALOMY); assay: C. Herbicidal pre-emergence efficacy, ALOMY; conditions: 320 g/ha, scored after about 3 weeks
Source text: as §1, §2

Veronica persica (VERPE) [12] = assay: E. Herbicidal post-emergence efficacy, VERPE
Procedure: as §3, §4, §5

Veronica persica (VERPE) [13] = assay: C. Herbicidal pre-emergence efficacy, VERPE; conditions: 320 g/ha, scored after about 3 weeks
Source text: as §1, §2

Kochia scoparia (KCHSC) [14] = assay: C. Herbicidal pre-emergence efficacy, KCHSC; conditions: application rate 320 g/ha
Source text: as §1, §2

[15] = test system: Amaranthus retroflexus (AMARE); assay: E. Herbicidal post-emergence efficacy, AMARE
Procedure: as §3, §4, §5

[16] = test system: Polygonum convolvulus (POLCO); assay: C. Herbicidal pre-emergence efficacy, POLCO; conditions: 320 g/ha, scored after about 3 weeks
Source text: as §1, §2

[17] = test system: Triticum aestivum (TRZAS); assay: F. Post-emergence effect on useful plants, TRZAS; conditions: useful plant
Procedure: as §3, §4
(§7) Tables F1a to F4 below show the effects of selected compounds of the general formula (I) according to table 1 on various useful plants at an application rate corresponding to 320 g/ha or less, which were obtained by the experimental procedure mentioned above.

[18] = test system: Echinochloa crus-galli (ECHCG); assay: E. Herbicidal post-emergence efficacy, ECHCG; conditions: application rate 320 g/ha
Procedure: as §3, §4, §5

Kochia scoparia (KCHSC) [19] = assay: E. Herbicidal post-emergence efficacy, KCHSC
Procedure: as §3, §4, §5

[20] = test system: Digitaria sanguinalis (DIGSA); assay: C. Herbicidal pre-emergence efficacy, DIGSA; conditions: 320 g/ha, scored after about 3 weeks
Source text: as §1, §2

Glycine max (GLXMA) = assay: D. Pre-emergence effect on useful plants, GLXMA; conditions: useful plant, application rate 80 g/ha
Source text: as §1, §6

[21] = test system: Pharbitis purpurea (PHBPU); assay: E. Herbicidal post-emergence efficacy, PHBPU
Procedure: as §3, §4, §5

[22] = test system: Triticum aestivum (TRZAS); assay: D. Pre-emergence effect on useful plants, TRZAS; conditions: useful plant, application rate 80 g/ha
Source text: as §1, §6

Zea mays (ZEAMX) [23] = assay: F. Post-emergence effect on useful plants, ZEAMX; conditions: useful plant, application rate 80 g/ha
Procedure: as §3, §4, §7

Cc1cccc(Oc2ncc(Cl)cn2)c1OS(=O)(=O)CCC(F)=C(F)F [Example I-71]
Pre-emergence efficacy against VIOTR in % (Viola tricolor (VIOTR) [1]; application rate 80 g/ha): 100% | Pre-emergence efficacy against VIOTR in % (Viola tricolor (VIOTR) [1]; application rate 320 g/ha): 100% | Pre-emergence efficacy against AMARE ([2]; 80 g/ha): 100% | Pre-emergence efficacy against AMARE ([2]; 320 g/ha): 100% | Pre-emergence efficacy against ECHCG [3]: 100% | Pre-emergence efficacy against LOLRI (Lolium rigidum (LOLRI)): 80% | Post-emergence efficacy against POLCO in % [4]: 100% | Post-emergence efficacy against VIOTR in % (Viola tricolor (VIOTR) [5]; application rate 80 g/ha): 90% | Post-emergence efficacy against VIOTR in % (Viola tricolor (VIOTR) [5]; application rate 320 g/ha): 100% | Post-emergence efficacy against ABUTH in % [6]: 100% | Pre-emergence efficacy against ZEAMX in % (Zea mays (ZEAMX) [7]): 0% | Pre-emergence efficacy against ABUTH ([8]; 80 g/ha): 80% | Pre-emergence efficacy against ABUTH ([8]; 320 g/ha): 100% | Pre-emergence efficacy against SETVI (Setaria viridis (SETVI) [9]): 100% | Post-emergence efficacy against SETVI in % (Setaria viridis (SETVI) [10]): 100% | Pre-emergence efficacy against ALOMY [11]: 80% | Post-emergence efficacy against VERPE in % (Veronica persica (VERPE) [12]; application rate 80 g/ha): 80% | Post-emergence efficacy against VERPE in % (Veronica persica (VERPE) [12]; application rate 320 g/ha): 100% | Pre-emergence efficacy against VERPE (Veronica persica (VERPE) [13]): 90% | Pre-emergence efficacy against KCHSC in % (Kochia scoparia (KCHSC) [14]): 100% | Post-emergence efficacy against AMARE in % ([15]; application rate 80 g/ha): 90% | Post-emergence efficacy against AMARE in % ([15]; application rate 320 g/ha): 100% | Pre-emergence efficacy against POLCO [16]: 100% | Post-emergence efficacy against TRZAS in % ([17]; application rate 80 g/ha): 0% | Post-emergence efficacy against TRZAS in % ([17]; application rate 320 g/ha): 0% | Post-emergence efficacy against ECHCG in % [18]: 90% | Post-emergence efficacy against KCHSC in % (Kochia scoparia (KCHSC) [19]; application rate 80 g/ha): 100% | Post-emergence efficacy against KCHSC in % (Kochia scoparia (KCHSC) [19]; application rate 320 g/ha): 100% | Pre-emergence efficacy against DIGSA [20]: 100% | Pre-emergence efficacy against GLXMA in % (Glycine max (GLXMA)): 10% | Post-emergence efficacy against PHBPU in % ([21]; application rate 80 g/ha): 80% | Post-emergence efficacy against PHBPU in % ([21]; application rate 320 g/ha): 90% | Pre-emergence efficacy against TRZAS in % [22]: 0% | Post-emergence efficacy against ZEAMX in % (Zea mays (ZEAMX) [23]): 0%
